This is an account of results in ChEMBL document CHEMBL6096669, “Design and synthesis of novel derivatives of bisepoxylignans as potent anti-inflammatory agents involves the modulation of the M1/M2 microglia phenotype via TLR4/NF-κB signaling pathway” (Eur J Med Chem, 2025).

Structures are written as SMILES. Calls of active or inactive are those of the source. The rule behind the calls is not given here.

Data set [1] is described as follows: Cytotoxicity against mouse BV-2 cells assessed as cell viability at 10 uM measured after 24 hrs by MTT assay relative to control. The format is toxicity, cell-based. To be noted: read-out: Activity. Background: Formazan colour is commonly taken as a measure of viable cells.
In data set [2] the test system is BV-2. The data set is described as follows: (§1) Inhibition of LPS-induced NO production in mouse BV-2 cells at 10 uM measured after 24 hrs followed by induced with LPS for another 24 hrs by ELISA relative to control. The format is functional.
A short description of data set [3]: as §1. In kind it is functional.
The nature of data set [4]: Permeability of compound in PBS/EtOH (70:30) buffer incubated for 18 hrs by PAMPA-BBB assay. (In general: PAMPA measures passive passage across an artificial lipid membrane.)
The test system of data set [5] is BV-2. The data set is described as follows: Anti-inflammatory activity against LPS-induced mouse BV-2 cells assessed as decrease in LPS-induced Cyclooxygenase-2 mRNA expression at 20 uM incubated for 4 hrs followed by LPS induced for 12 hrs by RT-PCR analysis relative to control. The format is functional, cell-based. To be noted: time 16.0 hrs.

Usually inhibition stands for the drop in the measured response relative to a control, in per cent. Take `O=c1[nH]c2ccc(Nc3ncnc4c3ccn4Cc3c(F)cccc3Cl)cc2[nH]1`: the viability at 24 h, 10 µM in data set [1] came out at 77.2%. Besides, in the data set with BV-2 [2], the inhibition result was “inactive”. Consider `COc1cc(Cn2ccc3c(Nc4ccc5cn[nH]c5c4)ncnc32)cc(OC)c1`, for which the viability at 24 h, 10 µM in data set [1] was 118%. The inhibition at 10 µM in data set [3] is 77.7%. For `COc1ccc(Cn2ccc3c(Nc4ccc5[nH]c(=O)[nH]c5c4)ncnc32)cc1OC`, the viability at 24 h, 10 µM in data set [1] stood at 75.2%. Further, in the data set on BV-2 [2], the inhibition entry is “inactive”. For `Cn1ncc2cc(Nc3ncnc4c3ccn4Cc3ccc(F)cc3Cl)ccc21` the same measures were 79.2% and “inactive”.

On to `COc1cc(Cn2ccc3c(Nc4ccc5c(c4)CC(=O)N5)ncnc32)cc(OC)c1`, for which, in data set [1], the viability at 24 h, 10 µM worked out at 53%. In addition, in the data set with BV-2 [2], the inhibition entry was “inactive”. As to `O=c1[nH]c2ccc(Nc3ncnc4c3ccn4Cc3ccc(Cl)c(F)c3)cc2[nH]1`, in data set [1], the viability at 24 h, 10 µM turned out to be 83.1%. Besides, the inhibition at 10 µM in data set [3] turned out to be 103%. The like results for `O=c1[nH]c2ccc(Nc3ncnc4c3ccn4Cc3cccc4cccnc34)cc2[nH]1` were, in that order, 84.7% and 43.8%. In the case of `O=c1[nH]c2ccc(Nc3ncnc4c3ccn4Cc3cccc(F)c3Cl)cc2[nH]1`, the viability at 24 h, 10 µM in data set [1] stood at 42.2%. Moreover, the inhibition entry with BV-2 [2] was “inactive”. For `O=C(Cn1ccc2c(Nc3ccc4[nH]c(=O)[nH]c4c3)ncnc21)c1ccccc1`, the viability at 24 h, 10 µM in data set [1] amounted to 74.3%. Besides, in the data set with BV-2 [2], the inhibition result is “inactive”. As for `COc1cc(Cn2ccc3c(Nc4ccc5[nH]c(=O)[nH]c5c4)ncnc32)cc(OC)c1`, in data set [1], the viability at 24 h, 10 µM came out at 107%. For the same compound, in data set [3], the inhibition at 10 µM turned out to be 42.5%.

In the case of `COc1cccc(Cn2ccc3c(Nc4ccc5[nH]c(=O)[nH]c5c4)ncnc32)c1`, the viability at 24 h, 10 µM in data set [1] is 88.5%. Besides, in data set [3], the inhibition at 10 µM is 63.8%. In the case of `COc1cc(Cn2ccc3c(Nc4ccc5[nH]c(=O)oc5c4)ncnc32)cc(OC)c1`, the viability at 24 h, 10 µM in data set [1] amounted to 59.3%. Also, in the data set on BV-2 [2], the inhibition result was “inactive”.

In the case of `COc1cc(Cn2ccc3c(Nc4ccc5c(cnn5C)c4)ncnc32)cc(OC)c1`, the viability at 24 h, 10 µM in data set [1] stood at 62.5%. In addition, the inhibition at 10 µM in data set [3] is 63.8%. The like results for `O=c1[nH]c2ccc(Nc3ncnc4c3ccn4Cc3ccc(F)cc3Cl)cc2[nH]1` were, in that order, 84.5% and 78.5%. For `O=c1[nH]c2ccc(Nc3ncnc4c3ccn4Cc3ccc4c(c3)OCO4)cc2[nH]1` the same measures were 89.3% and 56.3%. On to `Cc1ccccc1Cn1ccc2c(Nc3ccc4[nH]c(=O)[nH]c4c3)ncnc21`, for which the viability at 24 h, 10 µM in data set [1] worked out at 81.8%. Moreover, in data set [3], the inhibition at 10 µM was determined as 63.5%.

In the case of `O=c1[nH]c2ccc(Nc3ncnc4c3ccn4Cc3ccc(I)cc3)cc2[nH]1`, in data set [1], the viability at 24 h, 10 µM turned out to be 98.7%. In addition, the inhibition at 10 µM in data set [3] is 74.5%. `Fc1ccc(Cn2ccc3c(Nc4ccc5scnc5c4)ncnc32)c(Cl)c1`: the viability at 24 h, 10 µM in data set [1] was 61.7%. Moreover, the inhibition entry in the data set with BV-2 [2] was “inactive”. Take `O=c1[nH]c2ccc(Nc3ncnc4c3ccn4Cc3ccc(F)cc3Cl)cc2o1`: the viability at 24 h, 10 µM in data set [1] is 85.7%. In data set [3], the inhibition at 10 µM stood at 54.3%.

Regarding `O=c1[nH]c2ccc(Nc3ncnc4c3ccn4Cc3cccc4ccccc34)cc2[nH]1`, the viability at 24 h, 10 µM in data set [1] was 59.7%. Also, the inhibition entry in the data set on BV-2 [2] was “inactive”. Regarding `O=c1[nH]c2ccc(Nc3ncnc4c3cnn4Cc3cc(F)cc(Cl)c3)cc2[nH]1`, the viability at 24 h, 10 µM in data set [1] stood at 92.9%. For the same compound, the inhibition at 10 µM in data set [3] stood at 61.7%. `O=c1[nH]c2ccc(Nc3ncnc4c3ccn4Cc3cccc(Cl)c3F)cc2[nH]1`: the viability at 24 h, 10 µM in data set [1] was determined as 73%. For the same compound, the inhibition entry with BV-2 [2] was “inactive”. `O=C1Cc2cc(Nc3ncnc4c3ccn4Cc3ccc(F)cc3Cl)ccc2N1`: the viability at 24 h, 10 µM in data set [1] is 56.6%. For the same compound, the inhibition entry in the data set on BV-2 [2] was “inactive”. With `O=c1[nH]c2ccc(Nc3ncnc4c3ccn4Cc3ccc(F)c(Cl)c3)cc2[nH]1`, the viability at 24 h, 10 µM in data set [1] was found to be 57.3%. For the same compound, the inhibition entry with BV-2 [2] was “inactive”. In the case of `CC1(C)S[C@@H]2[C@H](NC(=O)Cc3ccccc3)C(=O)N2[C@H]1C(=O)[O-].[Na+]` [PENICILLIN G SODIUM], the “log Pe” value in data set [4] was -6.06. For `O=c1[nH]c2ccc(Nc3ncnc4c3ccn4Cc3cc(Cl)ccc3F)cc2[nH]1`, in data set [1], the viability at 24 h, 10 µM was 70.3%. Also, the inhibition result in the data set with BV-2 [2] was “inactive”. For `Cc1cccc(Cn2ccc3c(Nc4ccc5[nH]c(=O)[nH]c5c4)ncnc32)c1` the same measures were 59% and “inactive”.

Turning to `O=c1[nH]c2ccc(Nc3ncnc4c3ccn4Cc3ccc(Cl)cc3)cc2[nH]1`, the viability at 24 h, 10 µM in data set [1] stood at 91.7%. The inhibition at 10 µM in data set [3] is 71.3%. In the case of `O=c1[nH]c2ccc(Nc3ncnc4c3ccn4Cc3cc(C(F)(F)F)cc(C(F)(F)F)c3)cc2[nH]1`, the viability at 24 h, 10 µM in data set [1] is 58.5%. In addition, in the data set with BV-2 [2], the inhibition result was “inactive”. For `O=c1[nH]c2ccc(Nc3ncnc4c3ccn4Cc3ccc(Cl)cc3F)cc2[nH]1` the same measures were 72.1% and “inactive”. For `Fc1ccc(Cn2ccc3c(Nc4ccc5cn[nH]c5c4)ncnc32)c(Cl)c1` the same measures were 76.2% and “inactive”.

Consider `O=c1[nH]c2ccc(Nc3ncnc4c3ccn4Cc3c(Cl)cccc3Cl)cc2[nH]1`, for which the viability at 24 h, 10 µM in data set [1] came out at 57.6%. In the data set on BV-2 [2], the inhibition result is “inactive”. `COc1ccc2c3c1O[C@H]1C[C@@H](O)C=C[C@@]31CCNC2`: the viability at 24 h, 10 µM in data set [1] was found to be 91.2%. Also, the inhibition at 10 µM in data set [3] was 55.7%. Also, the result in the data set with BV-2 [5] was Active. Regarding `CCn1cc(C(=O)O)c(=O)c2cc(F)c(N3CCNCC3)nc21` [ENOXACIN], in data set [4], the “log Pe” value is given as -6.24.

Take `Fc1ccc(Cn2ccc3c(Nc4ccc5c(c4)OCO5)ncnc32)c(Cl)c1`: the viability at 24 h, 10 µM in data set [1] was 96.9%. Also, in data set [3], the inhibition at 10 µM was found to be 46.8%.

On to `O=c1[nH]c2ccc(Nc3ncnc4c3ccn4Cc3ccc(F)cc3F)cc2[nH]1`, for which the viability at 24 h, 10 µM in data set [1] turned out to be 98.2%. For the same compound, the inhibition at 10 µM in data set [3] was 54.3%.

In the case of `O=c1[nH]c2ccc(Nc3ncnc4c3cnn4Cc3cc(Cl)cc(Cl)c3)cc2[nH]1`, in data set [1], the viability at 24 h, 10 µM was found to be 52.2%. The inhibition entry in the data set with BV-2 [2] was “inactive”. For `O=c1[nH]c2ccc(Nc3ncnc4c3cnn4Cc3cccc(Cl)c3F)cc2[nH]1` the same measures were 53.3% and “inactive”. `O=c1[nH]c2ccc(Nc3ncnc4c3cnn4Cc3cccc(F)c3Cl)cc2[nH]1`: in data set [1], the viability at 24 h, 10 µM amounted to 83.2%. Also, in data set [3], the inhibition at 10 µM stood at 96.2%. As for `O=C(Cn1ccc2c(Nc3ccc4[nH]c(=O)[nH]c4c3)ncnc21)N1CCOCC1`, in data set [1], the viability at 24 h, 10 µM is 102%. The inhibition at 10 µM in data set [3] was 54.3%. For `Cc1ccc(Cn2ccc3c(Nc4ccc5[nH]c(=O)[nH]c5c4)ncnc32)cc1`, the viability at 24 h, 10 µM in data set [1] stood at 77.2%. Moreover, the inhibition entry in the data set with BV-2 [2] is “inactive”.

In the case of `O=c1[nH]c2ccc(Nc3ncnc4c3ccn4Cc3cc(F)ccc3F)cc2[nH]1`, the viability at 24 h, 10 µM in data set [1] came to 50.7%. In the data set with BV-2 [2], the inhibition entry is “inactive”.

For `COc1cc([C@H]2OC[C@H]3[C@@H]2CO[C@@H]3c2cc(OC)c(O)c(OC)c2)cc(OC)c1O` [SYRINGARESINOL], the viability at 24 h, 10 µM in data set [1] amounted to 91%. In addition, the inhibition at 10 µM in data set [3] was found to be 75.6%.

For `COc1ccc(Cn2ccc3c(Nc4ccc5[nH]c(=O)[nH]c5c4)ncnc32)cc1`, the viability at 24 h, 10 µM in data set [1] turned out to be 115%. Moreover, the inhibition at 10 µM in data set [3] was 76.6%. With `COc1cc(Cn2ccc3c(Nc4ccc5c(c4)OCO5)ncnc32)cc(OC)c1`, the viability at 24 h, 10 µM in data set [1] stood at 93.2%. Also, the inhibition at 10 µM in data set [3] is 70.2%. For `O=c1[nH]c2ccc(Nc3ncnc4c3ccn4Cc3cc(F)cc(Cl)c3)cc2[nH]1` the same measures were 104% and 45.7%. Turning to `O=c1[nH]c2ccc(Nc3ncnc4c3cnn4Cc3ccc(Cl)cc3F)cc2[nH]1`, the viability at 24 h, 10 µM in data set [1] stood at 57.8%. Moreover, the inhibition result in the data set with BV-2 [2] was “inactive”.

For `COc1cc(Cn2ccc3c(Nc4ccc5scnc5c4)ncnc32)cc(OC)c1`, the viability at 24 h, 10 µM in data set [1] was determined as 84.5%. The inhibition entry in the data set on BV-2 [2] was “inactive”. Regarding `O=c1[nH]c2ccc(Nc3ncnc4c3ccn4Cc3ccccc3)cc2[nH]1`, the viability at 24 h, 10 µM in data set [1] is 99.7%. Further, the inhibition at 10 µM in data set [3] is 76.6%.
